Assay results published in patent publication US10220021B2, “Methods for treating and preventing ocular diseases, disorders, and conditions with melanin and melanin analogs, precursors, and derivatives” (priority 2014, dated 2019).
Read-outs that look alike come from different tables or passages of the source.

What was measured:
[1] = test system: cornea of the right eye of a Wistar rat; conditions: cited from earlier work; for Observation in Treated Eye: Angiogenesis / Observation in Treated Eye: Corneal Keratoconus / Observation in Treated Eye: No Change: 10 μL topically once, 5 rats treated, one week
[2] = test system: leukoplakia and hyperemia of the eye; test: Topical treatment of leukoplakia and hyperemia of the eye in a patient; format: in vivo, human; conditions: topical cortisone drops, two months, right eye
Description: The leukoplakia was hypothesized to be the result of excessive sun exposure and chemicals. The patient was initially treated with topical cortisone drops, and the cortisone treatment continued for two months.
One month subsequent to stopping cortisone treatment, the patient underwent treatment with a 3% aqueous solution of melanin (w/v) that was topically applied in the form of eye drops. The aqueous solution was produced by mixing water and chemically synthesized melanin (synthetic melanin). […] Three to four drops (about 50 μL per drop) of the 3% aqueous melanin solution were administered for each application, and the solution was applied four times per day at approximately six hour intervals. […] The same dosing regimen was used over the entire course of the treatment.

[3] = test system: eyes of healthy rats; conditions: rat, in vivo
Description: The effect of subconjunctival injection of melanin into the eyes of healthy rats was tested. Rats were put under general anesthesia by intraperitoneal injection of barbiturates. A total of five rats were used in the study. Then, 500 μL of a 3% aqueous melanin solution was administered to the right eye of each of the rats by subconjunctival injection. The left eye was left untreated.

[4] = test system: hyphema in rabbits; conditions: rabbit, in vivo; cited from earlier work

**Q.** Which results are given for Oc1ccccc1 [Phenol, phenol]?
**A.** formation of new blood vessels in the cornea ([1]; all concentrations of phenol tested (0.1 M to 8.5 M), at least one rat in each group, one week after application): new blood vessels began to form in the cornea; changes associated with corneal ectasia, particularly corneal keratoconus ([1]; higher concentrations of phenol (e.g., 3.0 M, 5.6 M, and 8.5 M)): observed in some of the rats; Observation in Treated Eye: Angiogenesis ([1]; phenol 0.1M): 1 Number of Rats; Observation in Treated Eye: Corneal Keratoconus ([1]; phenol 0.1M): 0 Number of Rats; Observation in Treated Eye: No Change ([1]; phenol 0.1M): 4 Number of Rats; Observation in Treated Eye: Angiogenesis ([1]; phenol 0.5M): 1 Number of Rats; Observation in Treated Eye: Corneal Keratoconus ([1]; phenol 0.5M): 0 Number of Rats; Observation in Treated Eye: No Change ([1]; phenol 0.5M): 4 Number of Rats; Observation in Treated Eye: Angiogenesis ([1]; phenol 1.0M): 3 Number of Rats; Observation in Treated Eye: Corneal Keratoconus ([1]; phenol 1.0M): 0 Number of Rats; Observation in Treated Eye: No Change ([1]; phenol 1.0M): 2 Number of Rats; Observation in Treated Eye: Angiogenesis ([1]; phenol 3.0M): 4 Number of Rats; Observation in Treated Eye: Corneal Keratoconus ([1]; phenol 3.0M): 2 Number of Rats; Observation in Treated Eye: No Change ([1]; phenol 3.0M): 1 Number of Rats; Observation in Treated Eye: Angiogenesis ([1]; phenol 6.5M): 4 Number of Rats; Observation in Treated Eye: Corneal Keratoconus ([1]; phenol 6.5M): 2 Number of Rats; Observation in Treated Eye: No Change ([1]; phenol 6.5M): 1 Number of Rats; Observation in Treated Eye: Angiogenesis ([1]; phenol 8.5M): 3 Number of Rats; Observation in Treated Eye: Corneal Keratoconus ([1]; phenol 8.5M): 1 Number of Rats; Observation in Treated Eye: No Change ([1]; phenol 8.5M): 2 Number of Rats

**Q.** Which “improvement of leukoplakia and hyperemia” value [2] does the source give for C[C@]12CCC(=O)C=C1CC[C@@H]1[C@@H]2C(=O)C[C@@]2(C)[C@H]1CC[C@]2(O)C(=O)CO [cortisone] here?
**A.** no improvement

**Q.** With melanin as the molecule, how does the “appearance of treated eyes immediately after injection” value [3] read?
**A.** increase in size and some distortion

**Q.** What about the “visible marks on the ocular tissue at the injection site” value [3] of the same molecule?
**A.** no visible marks

**Q.** And the “visible signs of inflammation, irritation, or subconjunctival bleeding” value [3]?
**A.** nor were any visible signs of inflammation, irritation, or subconjunctival bleeding observed

**Q.** What about the incidence of rebleeds [4] of the same molecule?
**A.** increase
